Test results reported in patent US20240124872A1, “IDENTIFICATION OF GENOMIC TARGETS” (University of Leeds, priority 2021, published 2024).

Assays:
TRPA1 knockout mice = settings: cited from earlier work
[1] = tested on: HeLa cells stably expressing CaMPARI-H396K; experiment: AITC responsiveness via Fura-2 calcium imaging; format: cell-based; settings: unmodified HeLa cells stably expressing CaMPARI-H396K (HeLa-C); FIG. 4
Procedure: FIG. 4 provides validation of TAGS (AITC-screen for TRPA1). a) a Piggy-Bac library was generated in Hela-C cells, stimulated with 100 uM AITC and co-incident photo-conversion light, and sorted via FACS based on CaMPARI red/green signal. b) Positive clones were collected as single cells, expanded into clonal populations, and testing for AITC responsiveness via Fura-2 calcium imaging. Percent responding cells are shown for each population. c-d) Example Fura-2 imaging traces. c) phenotypic negativity of HeLa-C cells. d) Example traces from population #22 in b. e) Genotyping of 100% responders. […] Blue arrows highlight transcription start site (TSS) of TRPA1. Red arrows highlight the true common insertion site (CIS) upstream of the TSS, found in every clone genotyped.
A test sample from each positive clonal line was loaded with the fluorescent calcium indicator Fura-2AM for 30 minutes in regular media supplemented with 1 ul/ml PluronicF127, washed with Ringer solution, and tested for positivity for the phenotype in question using conventional fluorescent microscopy (see FIG. 4a-d). A further test sample from confirmed positive clonal lines was transfected (as described above) with the pCAG-Cre vector (Addgene) to induce transient Cre recombinase expression. Phenotypic positivity was then re-tested as above, and populations in which the phenotype […] are discarded. […]

C=CCN=C=S [AITC]
sensitivity to AITC (TRPA1 knockout mice): lose all sensitivity
AITC responses (calcium signalling) [1]: phenotypically negative
